Results reported in patent EP0726261A1, “Herbidical 1,2,4 thiadiazoles” (American Cyanamid Company, priority 1995, dated 1996).

Assays:
Format in all cases: in vivo
[1] = system: Zea mays; assay: Herbicidal activity, preemergence test (Example 66); set-up: key: A rating of 0 indicates growth as untreated control; a rating of 9 indicates death; details: pre; 1000 g/ha; assessed visually twenty days after spraying
Description: (§1) To evaluate their herbicidal activity, compounds according to the invention are tested using a representative range of plants: ZEAMX Zea mays ORYSA Oryza sativa GLXMA Glycine max BEAVA Beta vulgaris LIUUT Linum usitatissimum AVEFA Avena fatua ECHCG Echinochloa crus-galli SINAL Sinapsis alba
(§2) The tests fall into two categories, preemergence and postemergence. The preemergence tests involve spraying a liquid formulation of the compound onto the soil in which the seeds of the plant species mentioned above have recently been sown. The postemergence tests involve spraying a liquid formulation of the compound onto seedling plants of the above species.
(§3) The soil used in the tests is a prepared horticultural loam.
(§4) The formulations used in the tests are prepared from solutions of the test compounds in acetone containing 0.4% by weight of an alkylphenol/ethylene oxide condensate available under the trademark TRITON X-155. These acetone solutions are diluted with water and the resulting formulations applied at dosage levels corresponding to 1000 g of active material per hectare in a volume equivalent to 900 litres per hectare.
(§5) In the preemergence tests, untreated sown soil, and in the postemergence tests, untreated soil bearing seedling plants, are used as controls.
(§6) The herbicidal effects of the test compounds are assessed visually twenty days after spraying the foliage and the soil and are recorded on a 0-9 scale. A rating of 0 indicates growth as untreated control, a rating of 9 indicates death. An increase of 1 unit on the linear scale approximates to an 11% increase in the level of effect.

[2] = system: Oryza sativa; assay: as above; set-up: key: A rating of 0 indicates growth as untreated control; a rating of 9 indicates death; details: pre; 1000 g/ha; assessed visually twenty days after spraying
Description: as §1, §2, §3, §4, §5, §6

[3] = system: Linum usitatissimum; assay: as above; set-up: key: A rating of 0 indicates growth as untreated control; a rating of 9 indicates death; details: pre; 1000 g/ha; assessed visually twenty days after spraying
Description: as §1, §2, §3, §4, §5, §6

[4] = system: Beta vulgaris; assay: as above; set-up: key: A rating of 0 indicates growth as untreated control; a rating of 9 indicates death; details: pre; 1000 g/ha; assessed visually twenty days after spraying
Description: as §1, §2, §3, §4, §5, §6

[5] = system: Avena fatua; assay: as above; set-up: key: A rating of 0 indicates growth as untreated control; a rating of 9 indicates death; details: pre; 1000 g/ha; assessed visually twenty days after spraying
Description: as §1, §2, §3, §4, §5, §6

[6] = system: Echinochloa crus-galli; assay: as above; set-up: key: A rating of 0 indicates growth as untreated control; a rating of 9 indicates death; details: pre; 1000 g/ha; assessed visually twenty days after spraying
Description: as §1, §2, §3, §4, §5, §6

[7] = system: Glycine max; assay: as above; set-up: key: A rating of 0 indicates growth as untreated control; a rating of 9 indicates death; details: pre; 1000 g/ha; assessed visually twenty days after spraying
Description: as §1, §2, §3, §4, §5, §6

[8] = system: Sinapsis alba; assay: as above; set-up: key: A rating of 0 indicates growth as untreated control; a rating of 9 indicates death; details: pre; 1000 g/ha; assessed visually twenty days after spraying
Description: as §1, §2, §3, §4, §5, §6

[9] = system: Zea mays; assay: Herbicidal activity, postemergence test (Example 66); set-up: key: A rating of 0 indicates growth as untreated control; a rating of 9 indicates death; details: post; 1000 g/ha; assessed visually twenty days after spraying
Description: as §1, §2, §3, §4, §5, §6

[10] = system: Oryza sativa; assay: as above; set-up: key: A rating of 0 indicates growth as untreated control; a rating of 9 indicates death; details: post; 1000 g/ha; assessed visually twenty days after spraying
Description: as §1, §2, §3, §4, §5, §6

[11] = system: Linum usitatissimum; assay: as above; set-up: key: A rating of 0 indicates growth as untreated control; a rating of 9 indicates death; details: post; 1000 g/ha; assessed visually twenty days after spraying
Description: as §1, §2, §3, §4, §5, §6

[12] = system: Beta vulgaris; assay: as above; set-up: key: A rating of 0 indicates growth as untreated control; a rating of 9 indicates death; details: post; 1000 g/ha; assessed visually twenty days after spraying
Description: as §1, §2, §3, §4, §5, §6

[13] = system: Avena fatua; assay: as above; set-up: key: A rating of 0 indicates growth as untreated control; a rating of 9 indicates death; details: post; 1000 g/ha; assessed visually twenty days after spraying
Description: as §1, §2, §3, §4, §5, §6

[14] = system: Echinochloa crus-galli; assay: as above; set-up: key: A rating of 0 indicates growth as untreated control; a rating of 9 indicates death; details: post; 1000 g/ha; assessed visually twenty days after spraying
Description: as §1, §2, §3, §4, §5, §6

[15] = system: Sinapsis alba; assay: as above; set-up: key: A rating of 0 indicates growth as untreated control; a rating of 9 indicates death; details: post; 1000 g/ha; assessed visually twenty days after spraying
Description: as §1, §2, §3, §4, §5, §6

[16] = system: Glycine max; assay: as above; details: post; 1000 g/ha; assessed visually twenty days after spraying
Description: as §1, §2, §3, §4, §5, §6

Compound	herbicidal effects on a 0-9 scale, ZEAMX [1]	herbicidal effects on a 0-9 scale, ORYSA [2]	herbicidal effects on a 0-9 scale, LIUUT [3]	herbicidal effects on a 0-9 scale, BEAVA [4]	herbicidal effects on a 0-9 scale, AVEFA [5]	herbicidal effects on a 0-9 scale, ECHCG [6]	herbicidal effects on a 0-9 scale, GLXMA [7]	herbicidal effects on a 0-9 scale, SINAL [8]	herbicidal effects on a 0-9 scale, ZEAMX [9]	herbicidal effects on a 0-9 scale, ORYSA [10]	herbicidal effects on a 0-9 scale, LIUUT [11]	herbicidal effects on a 0-9 scale, BEAVA [12]	herbicidal effects on a 0-9 scale, AVEFA [13]	herbicidal effects on a 0-9 scale, ECHCG [14]	herbicidal effects on a 0-9 scale, SINAL [15]	herbicidal effects on a 0-9 scale, GLXMA [16]
CC(NC(=O)c1nc(-c2ccc(F)cc2)ns1)c1cccs1 (racemic) [Example 15, (R/S)-3-(4-Fluorophenyl)-[1,2,4]thiadiazole-5-carboxylic acid, [1-(2-thienyl)ethyl]amide]	0	0	0	0	0	0	0	0	3	0	7	9	4	7	9	7
C=CCNC(=O)c1nc(-c2ccc(F)cc2)ns1 [Example 18]	0	0	0	0	0	0	0	0	0	0	5	8	2	0	9	6
O=C(NCc1cccs1)c1nc(-c2ccc(F)cc2)ns1 [Example 14]	0	0	0	0	0	0	0	0	0	0	5	8	0	2	8	2
CC(NC(=O)c1nc(C(C)(C)C)ns1)c1cccs1 (racemic) [Example 6, (R/S)-3-tert-Butyl-[1,2,4]thiadiazole-5-carboxylic acid, [1-(2-thienyl)ethyl]amide]	0	0	3	9	0	0	0	7	0	2	9	9	7	9	9	7
C[C@H](NC(=O)c1nc(C(C)(C)C)ns1)c1ccccc1 [Example 8, (S)-3-tert-Butyl-[1,2,4]thiadiazole-5-carboxylic acid, 1-(phenylethyl)amide]	0	0	0	8	0	0	0	8	0	0	9	9	6	8	9	6
O=C(NCc1ccccc1)c1nc(-c2ccc(F)cc2)ns1 [Example 20]	0	0	0	0	0	0	0	0	0	0	6	9	0	2	9	6
CC(NC(=O)c1nc(-c2cccc(C(F)(F)F)c2)ns1)c1cccs1 (racemic) [Example 21, (R/S)-3-(3-Trifluoromethylphenyl)-[1,2,4]thiadiazole-5-carboxylic acid, [1-(2-thienyl)ethyl]amide]	0	0	0	0	0	0	0	0	0	0	7	8	7	8	9	7
CC(NC(=O)c1nsc(-c2ccccc2)n1)c1cccs1 (racemic) [Example 22]	1	0	0	2	0	2	0	3	2	2	6	9	4	5	7	6
C[C@H](NC(=O)c1nsc(-c2ccc(Cl)cc2)n1)c1ccccc1 [Example 24]	0	0	0	0	0	0	0	0	0	0	5	8	0	2	8	5
